Source: PubChem BioAssay (NCI)
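Test compounds were applied to cells in 96-well plates for 48 hours at 5 doses. TGI marks complete inhibition of growth.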

Columns and labels:
Experiment in all cases: inhibition of tumour cell growth, NCI panel, 48 h
KM20L2 colon = tested on: KM20L2 colon
CCRF-CEM leukemia = tested on: CCRF-CEM leukemia
NCI-H226 lung = tested on: NCI-H226 lung
SNB-19 CNS = tested on: SNB-19 CNS
HOP-18 NSCLC = tested on: HOP-18 NSCLC
UACC-257 melanoma = tested on: UACC-257 melanoma
786-0 renal = tested on: 786-0 renal
HCT-116 colon = tested on: HCT-116 colon
SF-539 CNS = tested on: SF-539 CNS
COLO 205 colon = tested on: COLO 205 colon
OVCAR-4 ovarian = tested on: OVCAR-4 ovarian
RXF-631 renal = tested on: RXF-631 renal
SF-295 CNS = tested on: SF-295 CNS
MDA-MB-435 = tested on: MDA-MB-435
KM12 colon = tested on: KM12 colon
OVCAR-8 ovarian = tested on: OVCAR-8 ovarian
SN12C renal = tested on: SN12C renal
U251 CNS = tested on: U251 CNS
IGROV1 ovarian = tested on: IGROV1 ovarian
PC-3 prostate = tested on: PC-3 prostate
CAKI-1 renal = tested on: CAKI-1 renal
OVCAR-5 ovarian = tested on: OVCAR-5 ovarian
RXF 393 renal = tested on: RXF 393 renal
SW-620 colon = tested on: SW-620 colon
M14 melanoma = tested on: M14 melanoma
ACHN renal = tested on: ACHN renal
MALME-3M melanoma = tested on: MALME-3M melanoma
A498 renal = tested on: A498 renal
SK-MEL-2 melanoma = tested on: SK-MEL-2 melanoma
MCF7 breast = tested on: MCF7 breast
SNB-75 CNS = tested on: SNB-75 CNS
LOX IMVI melanoma = tested on: LOX IMVI melanoma
BT-549 breast = tested on: BT-549 breast
XF 498 CNS = tested on: XF 498 CNS
HS 578T breast = tested on: HS 578T breast
UO-31 renal = tested on: UO-31 renal
SK-OV-3 ovarian = tested on: SK-OV-3 ovarian
NCI-H460 lung = tested on: NCI-H460 lung
OVCAR-3 ovarian = tested on: OVCAR-3 ovarian
NCI-H23 lung = tested on: NCI-H23 lung
DMS 114 small cell lung = tested on: DMS 114 small cell lung
A549 NSCLC = tested on: A549 NSCLC
K-562 leukemia = tested on: K-562 leukemia
SK-MEL-5 melanoma = tested on: SK-MEL-5 melanoma
HCC-2998 colon = tested on: HCC-2998 colon
DMS 273 small cell lung = tested on: DMS 273 small cell lung
HL-60(TB) leukemia = tested on: HL-60(TB) leukemia
DLD-1 colon = tested on: DLD-1 colon
T-47D breast = tested on: T-47D breast
HOP-62 NSCLC = tested on: HOP-62 NSCLC
SF-268 CNS = tested on: SF-268 CNS
EKVX NSCLC = tested on: EKVX NSCLC
LXFL 529 NSCLC = tested on: LXFL 529 NSCLC
UACC-62 melanoma = tested on: UACC-62 melanoma
MDA-N = tested on: MDA-N
SK-MEL-28 melanoma = tested on: SK-MEL-28 melanoma
SR leukemia = tested on: SR leukemia
HCT-15 colon = tested on: HCT-15 colon
TK-10 renal = tested on: TK-10 renal
RPMI-8226 leukemia = tested on: RPMI-8226 leukemia
SNB-78 CNS = tested on: SNB-78 CNS
HT29 colon = tested on: HT29 colon
DU-145 prostate = tested on: DU-145 prostate
M19-MEL melanoma = tested on: M19-MEL melanoma
HOP-92 NSCLC = tested on: HOP-92 NSCLC
NCI-H522 lung = tested on: NCI-H522 lung
MOLT-4 leukemia = tested on: MOLT-4 leukemia

## C=C(CN(C)C)C(=O)c1ccc(OC2OC(COC(C)=O)C(OC(C)=O)C(OC(C)=O)C2OC(C)=O)cc1 (stereo unspecified)
KM20L2 colon
  TGI: 40.8 µM
CCRF-CEM leukemia
  TGI: 0.342 µM
NCI-H226 lung
  TGI: 19.8 µM
SNB-19 CNS
  TGI: 39.4 µM
HOP-18 NSCLC
  TGI: 9.82 µM
UACC-257 melanoma
  TGI: 5.94 µM
786-0 renal
  TGI: 3.82 µM
HCT-116 colon
  TGI: 6.12 µM
SF-539 CNS
  TGI: 30.6 µM
COLO 205 colon
  TGI: 3.17 µM
OVCAR-4 ovarian
  TGI: > 29.2 µM
RXF-631 renal
  TGI: 29.3 µM
SF-295 CNS
  TGI: 36 µM
MDA-MB-435
  TGI: 14.2 µM
KM12 colon
  TGI: 41.6 µM
OVCAR-8 ovarian
  TGI: 19.2 µM
SN12C renal
  TGI: 26.2 µM
U251 CNS
  TGI: 46.2 µM
IGROV1 ovarian
  TGI: 36.1 µM
PC-3 prostate
  TGI: 32 µM
CAKI-1 renal
  TGI: 9.54 µM
OVCAR-5 ovarian
  TGI: 37.4 µM
RXF 393 renal
  TGI: 3.69 µM
SW-620 colon
  TGI: 3.17 µM
M14 melanoma
  TGI: 11.2 µM
ACHN renal
  TGI: 3.21 µM
MALME-3M melanoma
  TGI: 7.51 µM
A498 renal
  TGI: 21 µM
SK-MEL-2 melanoma
  TGI: 33.3 µM
MCF7 breast
  TGI: 5.51 µM
SNB-75 CNS
  TGI: 38.5 µM
LOX IMVI melanoma
  TGI: 8.49 µM
BT-549 breast
  TGI: 10.8 µM
XF 498 CNS
  TGI: 9.77 µM
HS 578T breast
  TGI: > 83.7 µM
UO-31 renal
  TGI: 6.73 µM
SK-OV-3 ovarian
  TGI: 35.5 µM
NCI-H460 lung
  TGI: 40.8 µM
OVCAR-3 ovarian
  TGI: 14.5 µM
NCI-H23 lung
  TGI: 43.3 µM
DMS 114 small cell lung
  TGI: 14.6 µM
A549 NSCLC
  TGI: 45.2 µM
K-562 leukemia
  TGI: 0.474 µM
SK-MEL-5 melanoma
  TGI: 20.3 µM
HCC-2998 colon
  TGI: 36.8 µM
DMS 273 small cell lung
  TGI: > 51.7 µM
HL-60(TB) leukemia
  TGI: > 100 µM
DLD-1 colon
  TGI: 3.83 µM
T-47D breast
  TGI: 15.7 µM
HOP-62 NSCLC
  TGI: 24.3 µM
SF-268 CNS
  TGI: 62 µM
EKVX NSCLC
  TGI: 54.2 µM
LXFL 529 NSCLC
  TGI: 2.9 µM
UACC-62 melanoma
  TGI: 22.4 µM
MDA-N
  TGI: 11.1 µM
SK-MEL-28 melanoma
  TGI: 9.22 µM
SR leukemia
  TGI: 4.94 µM
HCT-15 colon
  TGI: 11.3 µM
TK-10 renal
  TGI: 7.06 µM
RPMI-8226 leukemia
  TGI: > 100 µM
SNB-78 CNS
  TGI: 50.8 µM
HT29 colon
  TGI: 12.2 µM
DU-145 prostate
  TGI: 31.3 µM

## C[C@]12Cc3cn[nH]c3C(=O)C1CC[C@@H]1C2CC[C@@]2(C)C1CC[C@]2(C)O (stereo partly specified)
KM20L2 colon
  TGI: > 100 µM
CCRF-CEM leukemia
  TGI: > 100 µM
NCI-H226 lung
  TGI: > 100 µM
SNB-19 CNS
  TGI: > 100 µM
HOP-18 NSCLC
  TGI: > 100 µM
UACC-257 melanoma
  TGI: > 100 µM
786-0 renal
  TGI: > 100 µM
HCT-116 colon
  TGI: > 100 µM
M19-MEL melanoma
  TGI: > 100 µM
SF-539 CNS
  TGI: > 100 µM
COLO 205 colon
  TGI: > 100 µM
HOP-92 NSCLC
  TGI: > 100 µM
OVCAR-4 ovarian
  TGI: > 100 µM
RXF-631 renal
  TGI: > 100 µM
SF-295 CNS
  TGI: > 100 µM
KM12 colon
  TGI: > 100 µM
OVCAR-8 ovarian
  TGI: > 100 µM
SN12C renal
  TGI: > 100 µM
U251 CNS
  TGI: > 100 µM
IGROV1 ovarian
  TGI: > 100 µM
CAKI-1 renal
  TGI: > 100 µM
OVCAR-5 ovarian
  TGI: > 100 µM
RXF 393 renal
  TGI: > 100 µM
NCI-H522 lung
  TGI: > 100 µM
SW-620 colon
  TGI: > 100 µM
M14 melanoma
  TGI: > 100 µM
ACHN renal
  TGI: > 100 µM
MALME-3M melanoma
  TGI: > 100 µM
A498 renal
  TGI: > 100 µM
SK-MEL-2 melanoma
  TGI: > 100 µM
SNB-75 CNS
  TGI: > 100 µM
LOX IMVI melanoma
  TGI: > 100 µM
XF 498 CNS
  TGI: > 100 µM
UO-31 renal
  TGI: > 100 µM
SK-OV-3 ovarian
  TGI: > 100 µM
NCI-H460 lung
  TGI: > 100 µM
OVCAR-3 ovarian
  TGI: > 100 µM
NCI-H23 lung
  TGI: > 100 µM
DMS 114 small cell lung
  TGI: > 100 µM
A549 NSCLC
  TGI: > 100 µM
K-562 leukemia
  TGI: > 100 µM
SK-MEL-5 melanoma
  TGI: > 100 µM
HCC-2998 colon
  TGI: > 100 µM
DMS 273 small cell lung
  TGI: > 100 µM
HL-60(TB) leukemia
  TGI: > 100 µM
DLD-1 colon
  TGI: > 100 µM
HOP-62 NSCLC
  TGI: > 100 µM
SF-268 CNS
  TGI: > 100 µM
EKVX NSCLC
  TGI: > 100 µM
LXFL 529 NSCLC
  TGI: > 100 µM
UACC-62 melanoma
  TGI: > 100 µM
SK-MEL-28 melanoma
  TGI: > 100 µM
MOLT-4 leukemia
  TGI: > 100 µM
HCT-15 colon
  TGI: > 100 µM
TK-10 renal
  TGI: > 100 µM
RPMI-8226 leukemia
  TGI: > 100 µM
SNB-78 CNS
  TGI: > 100 µM
HT29 colon
  TGI: > 100 µM
